From patent publication US9578880B2, “Acetyl co-enzyme A carboxylase herbicide resistant plants” (Colorado Wheat Research Foundation, Inc., priority 2011, dated 2017)

Columns and labels:
[1] = tested on: non-mutant Hatcher winter wheat (Accession 0); assay: Cross-resistance study, plant survival after other ACCase herbicides (non-mutant check); assay type: in vivo, Triticum aestivum L.; conditions: Accession 0 (non-mutant check); clethodim 65, sethoxydim 264, fluazifop 361 g ai ha^-1, clethodim + 10.5 g ai ha^-1 quizalofop; 28 DAT
Description: (§1) A cross-resistance study was conducted within the ACCase herbicide mode of action using herbicides normally lethal to wheat. Clethodim, sethoxydim, and fluazifop were used at rates of 65, 264, and 361 g ai ha^−1, plus a treatment of clethodim and 10.5 g ai ha^−1 quizalofop. Seven DAT the tops of plants were cut off above the newest above-ground growing point. Binomial evaluation of plant survival was performed 28 DAT. Tolerance of quizalofop mutants to clethodim and sethoxydim was low (Table 1). The presence of any cross tolerance presents evidence that combining multiple homologous resistant ACCase genes into a single plant could lead to resistance to additional herbicides. At this stage only a third of the total ACCase in the plant would have a mutation and contain tolerance to ACCase inhibitors if the mutation is target-site-based.

[2] = tested on: quizalofop tolerant mutant wheat accessions; assay: Cross-resistance study, plant survival after other ACCase herbicides (quizalofop tolerant mutants); assay type: in vivo, Triticum aestivum L.; conditions: 28 DAT
Description: as §1

[3] = tested on: quizalofop-tolerant wheat accessions vs non-mutant Hatcher wheat; assay: Visual evaluation of injury to quizalofop; assay type: in vivo, Triticum aestivum L.; conditions: 21.05 g ai ha^-1; 28 DAT; nearly all of 18 quizalofop-tolerant accessions
Description: 18 quizalofop-tolerant accessions were treated with 21.05 g ai ha^−1 quizalofop, a discriminating dose based on previous studies. Plants were evaluated 28 days after treatment (DAT) for visible injury to quizalofop on a scale of 0 to 100%, with 0 being no injury and 100 being complete desiccation. Nearly all accessions evaluated in this study appeared more tolerant to quizalofop than non-mutant Hatcher wheat (FIG. 5). The accessions contained few completely dead plants, with the exception of the one accession not different than the background.

[4] = tested on: ACCase, B genome nucleotide substitution (Ala2004Val); assay: In-vitro ACCase enzyme assay; assay type: biochemical, Triticum aestivum L.
Description: (§2) An in-vitro enzyme assay was conducted to observe ACCase in conjunction with quizalofop directly to determine if the presence of ACCase mutations decreases the ability of herbicides to inhibit ACCase activity. Four quizalofop concentrations of 0.1, 1, 10, and 100 μM were included in the assay along with a non-treated control. The experiment included four accessions which included a representative from the three mutations detected and non-mutagenized wheat. […] Calculated at the I25 level, the resistant to susceptible value for the A genome was 4.57, the B genome was 3.57 and the D genome was 10.86.

[5] = tested on: ACCase, D genome nucleotide substitution (Ala2004Val); assay: In-vitro ACCase enzyme assay; assay type: biochemical, Triticum aestivum L.; conditions: for ACCase tolerance compared with background: D genome substitution
Description: as §2

[6] = tested on: ACCase of non-mutagenized Hatcher winter wheat; assay: In-vitro ACCase enzyme assay; assay type: biochemical, Triticum aestivum L.; conditions: 0.1, 1, 10, 100 μM
Description: as §2

[7] = tested on: ACCase, A genome nucleotide substitution (Ala2004Val); assay: In-vitro ACCase enzyme assay; assay type: biochemical, Triticum aestivum L.
Description: as §2

[8] = Accession 1, clethodim 65, sethoxydim 264, fluazifop 361 g ai ha^-1, clethodim + 10.5 g ai ha^-1 quizalofop

## CCSC(C)CC1CC(=O)C(/C(CC)=N/OC/C=C/Cl)=C(O)C1 (stereo not shown) [Clethodim, clethodim]
[1]
  survival after application of ACCase herbicide: 0%
[2]; [8]
  survival after application of ACCase herbicide: 10%
[2]; Accession 2, same rates
  survival after application of ACCase herbicide: 0%
[2]; Accession 3, same rates
  survival after application of ACCase herbicide: 0%
[2]; Accession 4, same rates
  survival after application of ACCase herbicide: 0%
[2]; Accession 5, same rates
  survival after application of ACCase herbicide: 0%
[2]; Accession 6, same rates
  survival after application of ACCase herbicide: 0%
[2]; Accession 7, same rates
  survival after application of ACCase herbicide: 0%
[2]; Accession 8, same rates
  survival after application of ACCase herbicide: 25%
[2]; Accession 9, same rates
  survival after application of ACCase herbicide: 17%
[2]; Accession 10, same rates
  survival after application of ACCase herbicide: 0%
[2]; Accession 11, same rates
  survival after application of ACCase herbicide: 0%
[2]; Accession 12, same rates
  survival after application of ACCase herbicide: 17%
[2]; Accession 13, same rates
  survival after application of ACCase herbicide: 0%
[2]; Accession 14, same rates
  survival after application of ACCase herbicide: 0%
[2]; Accession 15, same rates
  survival after application of ACCase herbicide: 0%
[2]; Accession 16, same rates
  survival after application of ACCase herbicide: 0%
[2]; Accession 17, same rates
  survival after application of ACCase herbicide: 0%

## CC(Oc1ccc(Oc2ccc(C(F)(F)F)cn2)cc1)C(=O)O (stereo not shown) [Fluazifop, fluazifop]
[1]
  survival after application of ACCase herbicide: 0%
[2]; [8]
  survival after application of ACCase herbicide: 0%
[2]; Accession 2, same rates
  survival after application of ACCase herbicide: 0%
[2]; Accession 3, same rates
  survival after application of ACCase herbicide: 0%
[2]; Accession 4, same rates
  survival after application of ACCase herbicide: 0%
[2]; Accession 5, same rates
  survival after application of ACCase herbicide: 0%
[2]; Accession 6, same rates
  survival after application of ACCase herbicide: 0%
[2]; Accession 7, same rates
  survival after application of ACCase herbicide: 0%
[2]; Accession 8, same rates
  survival after application of ACCase herbicide: 0%
[2]; Accession 9, same rates
  survival after application of ACCase herbicide: 0%
[2]; Accession 10, same rates
  survival after application of ACCase herbicide: 0%
[2]; Accession 11, same rates
  survival after application of ACCase herbicide: 0%
[2]; Accession 12, same rates
  survival after application of ACCase herbicide: 0%
[2]; Accession 13, same rates
  survival after application of ACCase herbicide: 0%
[2]; Accession 14, same rates
  survival after application of ACCase herbicide: 0%
[2]; Accession 15, same rates
  survival after application of ACCase herbicide: 0%
[2]; Accession 16, same rates
  survival after application of ACCase herbicide: 0%
[2]; Accession 17, same rates
  survival after application of ACCase herbicide: 0%

## CCC/C(=N\OCC)C1=C(O)CC(CC(C)SCC)CC1=O (stereo not shown) [Sethoxydim, sethoxydim]
[1]
  survival after application of ACCase herbicide: 0%
[2]; [8]
  survival after application of ACCase herbicide: 0%
[2]; Accession 2, same rates
  survival after application of ACCase herbicide: 0%
[2]; Accession 3, same rates
  survival after application of ACCase herbicide: 0%
[2]; Accession 4, same rates
  survival after application of ACCase herbicide: 0%
[2]; Accession 5, same rates
  survival after application of ACCase herbicide: 0%
[2]; Accession 6, same rates
  survival after application of ACCase herbicide: 0%
[2]; Accession 7, same rates
  survival after application of ACCase herbicide: 0%
[2]; Accession 8, same rates
  survival after application of ACCase herbicide: 0%
[2]; Accession 9, same rates
  survival after application of ACCase herbicide: 0%
[2]; Accession 10, same rates
  survival after application of ACCase herbicide: 0%
[2]; Accession 11, same rates
  survival after application of ACCase herbicide: 8%
[2]; Accession 12, same rates
  survival after application of ACCase herbicide: 8%
[2]; Accession 13, same rates
  survival after application of ACCase herbicide: 0%
[2]; Accession 14, same rates
  survival after application of ACCase herbicide: 0%
[2]; Accession 15, same rates
  survival after application of ACCase herbicide: 0%
[2]; Accession 16, same rates
  survival after application of ACCase herbicide: 0%
[2]; Accession 17, same rates
  survival after application of ACCase herbicide: 0%
[2]; clethodim 65, sethoxydim 264 g ai ha^-1
  Tolerance of quizalofop mutants (cross-resistance): low

## CC(Oc1ccc(Oc2cnc3cc(Cl)ccc3n2)cc1)C(=O)O (stereo not shown) [quizalofop]
[3]
  visible injury, tolerance of accessions compared with non-mutant Hatcher wheat: more tolerant
[4]; 10 μM, B genome substitution
  ACCase tolerance compared with background: higher than background levels of tolerance
[4]; B genome mutant vs non-mutagenized wheat
  resistant to susceptible value calculated at the I25 level: 3.57
[5]; 10 μM
  ACCase tolerance compared with background: higher than background levels of tolerance
[5]; 100 μM
  ACCase tolerance compared with background: higher than background tolerance
[5]; D genome mutant vs non-mutagenized wheat
  resistant to susceptible value calculated at the I25 level: 10.86
[6]
  sensitivity of ACCase compared with the mutant accessions: greater sensitivity
[7]; 100 μM, A genome substitution
  ACCase tolerance compared with background: higher than background tolerance
[7]; A genome mutant vs non-mutagenized wheat
  resistant to susceptible value calculated at the I25 level: 4.57
